Two compounds from patent US11666562B2, “Ilaprazole for inhibiting the release of enveloped viruses from cells” (Northwestern University, priority 2020, dated 2023) can be followed below.

The test system of test [1] is HSV-1. The test is described as follows: Release of HSV-1 from infected Vero cells, plaque assay. Conditions: for pEC50: Human alphaherpesvirus 1; for Duration of inhibition of HSV-1 release after a single application: data not shown. Format: cell-based, Herpes simplex virus-1 (Kos strain). As for the experimental part:
We infected Vero cells with HSV-1 and HSV-2 for two hours at a multiplicity of infection (MOI in pfu\cell) of 0.1 to assay the antiviral activity of tenatoprazole. Following infection, cells were treated with different concentrations of tenatoprazole. After 24 or 48 h the media fractions were collected and released virus titers were determined by standard plaque assays (30). Tenatoprazole caused a 3-log drop of HSV-1 and 4-5 log drop of HSV-2 in released infectious virus from Vero cells at 24 hours after infection in a dose dependent manner (Table 1, shown in FIG. 5, columns 2 and 3) with calculated EC50's ranging from 48-80 μM. Total virus titer was also determined to differentiate between virus released into the media and infectious particles present in cell lysate. […] The concentrations of tenatoprazole that blocked virus release were nontoxic to Vero cells as determined by a 96® AQueous One Solution cell proliferation assay reagent (Table 1, shown in FIG. 5, column 7). Taken together, tenatoprazole inhibited levels of both released and infectious virus particles without affecting cell viability at effective concentrations.
Herpesvirus infection of Vero cells. Vero cells (0.8×10^6 cells/well of a 6-well plate) were infected with HSV-1 or HSV-2 at a MOI of 0.1 pfu/cell in DMEM with 1% serum for two hours in the C02 incubator at 37° C. In one experiment looking at the effect of tenatoprazole on HSV-2 release from cells 24 and 48 h a MOI of 3 pfu/cell was used. The cell supernatants were aspirated and replaced with 1 ml (24 h) or 2 ml (48 h and 72 h) of DMEM with 1% serum with DMSO or different concentrations of drug (tenatoprazole, ilaprazole, or analogs) dissolved in DMSO. After 24 or 48 h incubation, the cell supernatant was collected and frozen at −80° C. Virus titer in the cell media fraction was determined by standard plaque assays using 10-fold serial dilutions of cell supernatants of Vero cells and incubated for 48 h after which cells were fixed and stained to count the plaques (22). For determination of total virus (extracellular+cytoplasmic), virus infected cells were incubated for 24 h with and without drug presence, then the plate of cells were subjected to 3 cycles of freeze/thawing (−80° C./37° C.) 30 min each prior to collecting the supernatant after centrifugation for measurement of total virus titer. Virus titer was measured by standard plaque assay as above.
Drug potency and cell toxicity. EC50 calculations were determined by using AAT Bioquest's EC50 calculator. Cell toxicity at different concentrations of drugs as indicated was determine using the Cell Proliferation Reagent WST-1 (Roche Diagnostics) or cellular 96® Aqueous One Reagent viability reagent according to manufacturer's instructions. For 293T cells, the concentration of DMSO was 0.2% or less and assays were carried out with DMEM with 10% serum. Cell toxicity experiments were repeated twice.

The test system of test [2] is HSV-1. Briefly: Transmission electron microscopy of HSV-1 infected Vero cells, location of virus particles. The format is cell-based, Herpes simplex virus-1 (Kos strain). Conditions: HSV-1, 18 μM ilaprazole, 24 h. The protocol: FIG. 4. Inhibitory effect of Ilaprazole on HSV-2 and HSV-1 production. Vero cells infected with HSV-2 or HSV-1 at MOI of 0.1 and examined by transmission electron microscopy 24 h later. HSV-2 infected untreated cells (A & B) and cells treated with 18 μM ilaprazole (C & D). HSV-1 infected untreated cells (E & F) and cells treated with 18 μM ilaprazole (G & H). Eighty cells where virus particles were observed were examined. In the presence of ilaprazole, we observe no or very few particles in the cytoplasm. Treated cells also have an accumulation of electron dense material and particles associated with them. In untreated HSV-2 infected cells, we observed an average of 120 particles ranging from 28-204 […], and an average of 16 particles ranging from 10-22 in the nucleus. In treated HSV-2 infected cells, we observed 0 particles in the cytoplasm and an average of 31 particles ranging from 9-56 in the nucleus. In untreated HSV-1 infected cells we observed an average of 135 particles ranging from 12-152 in the cytoplasm, and an average of 35 particles ranging from 10-66 in the nucleus. In treated HSV-1 infected cells, we observed 0 particles in the cytoplasm and an average of 43 particles ranging from 15-166 in the nucleus. Arrows point to virus particles. Nuc, nucleus. Cyt, cytoplasm.
We next carried out a transmission electron microscopic examination of cells infected with HSV-2 at a MOI 0.1 in the presence and absence of 18 μM ilaprazole to determine if this drug causes the accumulation of virus particles in the nucleus of cells similar to tenatoprazole. […] In both heavily infected cells (FIGS. 4A & C) and mildly infected cells (FIGS. 4B & D), treatment lead to particles being detected in the nucleus and arrayed along the nuclear membrane but lacking in the cytosol. […] The lower total infectious virus detected in Table 3 (FIG. 7) is consistent with blockage of the virus passaging out of the nucleus into the cytoplasm where membranes are exchanged and virus becomes infectious. […]

Where [3] appears, read: Vero cells, MOI 0.1, 24 h, read-out: EC50, inhibition of HSV-1 release.

The structures appear in SMILES notation. pEC50: −log10 of the molar value. Like-named read-outs stand apart in the source and are kept apart here.

As a reminder, the pEC50 is −log10 of the EC50, conventionally taken in molar units.

On to `COc1ccnc(C[S+]([O-])c2nc3ccc(-n4cccc4)cc3[nH]2)c1C` (stereo not shown) [Ilaprazole, 2-[(4-methoxy-3-methylpyridin-2-yl)methylsulfinyl]-6-pyrrol-1-yl-1H-benzimidazole], for which, in test [1] (Vero cells, 72 h after a single application (Table 3A columns 2 & 4, HSV-1), read-out: 72 h EC50, inhibition of virus release), the negative logarithm of the EC50 (pEC50) is 5.92 to 6.10. Moreover, the pEC50 in test [1] (setting [3]) was 5.05 to 5.52. In test [1] (Vero cells, freeze/thaw lysate), the “Total infectious virus (released plus inside cells), HSV-1” value is on record as “significant drop in total virus”. For the same compound, the “Duration of inhibition of HSV-1 release after a single application” value in test [1] is “Significant inhibition was still observed at 4 and 5 days”. Also, in test [2], the “Average number of virus particles in the nucleus” value is on record as 43 particles, the “Range of number of virus particles in the nucleus” value was 15-166 particles and the “Virus particles in the cytoplasm” value amounted to 0 particles.
As for `COc1ccc2[nH]c([S+]([O-])Cc3ncc(C)c(OC)c3C)nc2n1` (stereo not shown) [Tenatoprazole], in test [1] (setting [3]), the negative logarithm of the EC50 (pEC50) is 4.10 to 4.32. Also, the “Drop in released infectious HSV-1” value in test [1] (Vero cells, 24 hours after infection, dose dependent) came out at 3 log. The “Duration of inhibition of HSV-1 release after a single application” value in test [1] is “began to fall off after 48 h”.
